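Cultured in 96-well plates, cells were exposed to test compound for 48 hours across five concentrations. GI50 = concentration required for 50% inhibition of growth.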 Calls of active or inactive are those of the source. No stated cut-off is given here; in the data, active = GI50 up to about 1.1 µM and inactive = higher.
Assays:
Assay in all cases: growth of human tumour cells (NCI), 48 h
[1] = tested on: 786-0
[2] = tested on: A498
[3] = tested on: A549
[4] = tested on: ACHN
[5] = tested on: BT-549
[6] = tested on: CAKI-1
[7] = tested on: CCRF-CEM
[8] = tested on: COLO 205
[9] = tested on: DU-145
[10] = tested on: EKVX
[11] = tested on: HCT-116
[12] = tested on: HCT-15
[13] = tested on: HL-60
[14] = tested on: HOP-62
[15] = tested on: HOP-92
[16] = tested on: HT-29
[17] = tested on: Hs-578T
[18] = tested on: IGROV-1
[19] = tested on: K562
[20] = tested on: KM12
[21] = tested on: LOX IMVI
[22] = tested on: M14
[23] = tested on: MCF7
[24] = tested on: MDA-MB-231
[25] = tested on: MDA-MB-435
[26] = tested on: MOLT-4
[27] = tested on: Malme-3M
[28] = tested on: NCI-H226
[29] = tested on: NCI-H23
[30] = tested on: NCI-H460
[31] = tested on: NCI-H522
[32] = tested on: NCI/ADR-RES
[33] = tested on: OVCAR-3
[34] = tested on: OVCAR-4
[35] = tested on: OVCAR-5
[36] = tested on: OVCAR-8
[37] = tested on: PC-3
[38] = tested on: RPMI-8226
[39] = tested on: RXF 393
[40] = tested on: SF-268
[41] = tested on: SF-295
[42] = tested on: SF-539
[43] = tested on: SK-MEL-28
[44] = tested on: SK-MEL-2
[45] = tested on: SK-MEL-5
[46] = tested on: SK-OV-3
[47] = tested on: SN12C
[48] = tested on: SNB-19
[49] = tested on: SNB-75
[50] = tested on: SR
[51] = tested on: SW-620
[52] = tested on: T47D
[53] = tested on: TK-10
[54] = tested on: U-251
[55] = tested on: UACC-257
[56] = tested on: UACC-62
[57] = tested on: UO-31

## CCn1c(-c2c(Cl)cc(O)cc2Cl)cc2c(Cl)cc(O)cc21
[1]
  GI50: 4.66 µM (inactive)
[2]
  GI50: 13.9 µM (inactive)
[3]
  GI50: 4.42 µM (inactive)
[4]
  GI50: 4.66 µM (inactive)
[5]
  GI50: 4.5 µM (inactive)
[6]
  GI50: 6.14 µM (inactive)
[7]
  GI50: 6.04 µM (inactive)
[8]
  GI50: 15.2 µM (inactive)
[9]
  GI50: 4.48 µM (inactive)
[10]
  GI50: 13.2 µM (inactive)
[11]
  GI50: 4.26 µM (inactive)
[12]
  GI50: 3.48 µM
[13]
  GI50: 3.43 µM (inactive)
[14]
  GI50: 6.25 µM (inactive)
[15]
  GI50: 13.8 µM (inactive)
[16]
  GI50: 1.58 µM (inactive)
[17]
  GI50: 5.07 µM (inactive)
[18]
  GI50: 3.21 µM (inactive)
[19]
  GI50: 3.41 µM (inactive)
[20]
  GI50: 5.07 µM (inactive)
[21]
  GI50: 6.38 µM (inactive)
[22]
  GI50: 6.05 µM (inactive)
[23]
  GI50: 3.71 µM (inactive)
[24]
  GI50: 5.9 µM (inactive)
[25]
  GI50: 1.67 µM (inactive)
[26]
  GI50: 8.87 µM (inactive)
[27]
  GI50: 14 µM (inactive)
[28]
  GI50: 26.4 µM (inactive)
[29]
  GI50: 7.78 µM (inactive)
[30]
  GI50: 3.56 µM (inactive)
[31]
  GI50: 1.72 µM (inactive)
[32]
  GI50: 5.13 µM (inactive)
[33]
  GI50: 6.08 µM (inactive)
[34]
  GI50: 4.85 µM (inactive)
[35]
  GI50: 8.97 µM (inactive)
[36]
  GI50: 4.59 µM (inactive)
[37]
  GI50: 9.04 µM (inactive)
[38]
  GI50: 5.81 µM (inactive)
[39]
  GI50: 2.33 µM (inactive)
[40]
  GI50: 2.88 µM (inactive)
[41]
  GI50: 4.05 µM (inactive)
[42]
  GI50: 3.24 µM (inactive)
[43]
  GI50: 2.3 µM (inactive)
[44]
  GI50: 4.02 µM (inactive)
[45]
  GI50: 3.21 µM (inactive)
[46]
  GI50: 7.36 µM (inactive)
[47]
  GI50: 13.3 µM (inactive)
[48]
  GI50: 8.47 µM (inactive)
[49]
  GI50: 4.18 µM (inactive)
[50]
  GI50: 5.45 µM (inactive)
[51]
  GI50: 5.69 µM (inactive)
[52]
  GI50: 7.62 µM (inactive)
[53]
  GI50: 13.1 µM (inactive)
[54]
  GI50: 4.03 µM (inactive)
[55]
  GI50: 11.7 µM (inactive)
[56]
  GI50: 8.49 µM (inactive)
[57]
  GI50: 7.83 µM (inactive)

## Fc1c(F)c(C(F)(F)F)c(F)c(F)c1N/N=C/c1cn(Cc2ccccc2)c2ccccc12
[1]
  GI50: 23.2 µM (inactive)
[2]
  GI50: 27.9 µM (inactive)
[3]
  GI50: 27.9 µM (inactive)
[4]
  GI50: 26.7 µM (inactive)
[5]
  GI50: 30.2 µM (inactive)
[6]
  GI50: 21.3 µM (inactive)
[7]
  GI50: 20.1 µM (inactive)
[8]
  GI50: 13.5 µM (inactive)
[9]
  GI50: 29.2 µM (inactive)
[10]
  GI50: 18.4 µM (inactive)
[11]
  GI50: 23.1 µM (inactive)
[12]
  GI50: 25.2 µM
[13]
  GI50: 21.8 µM (inactive)
[14]
  GI50: 2.24 µM (inactive)
[15]
  GI50: 24 µM (inactive)
[16]
  GI50: 18.2 µM (inactive)
[17]
  GI50: 41.7 µM (inactive)
[18]
  GI50: 27.5 µM (inactive)
[19]
  GI50: 31 µM (inactive)
[20]
  GI50: 20 µM (inactive)
[21]
  GI50: 22.8 µM (inactive)
[22]
  GI50: 18.2 µM (inactive)
[23]
  GI50: 23.1 µM (inactive)
[24]
  GI50: 21 µM (inactive)
[25]
  GI50: 22.1 µM (inactive)
[26]
  GI50: 23.3 µM (inactive)
[27]
  GI50: 30.4 µM (inactive)
[29]
  GI50: 27.5 µM (inactive)
[30]
  GI50: 12.1 µM (inactive)
[31]
  GI50: 23.7 µM (inactive)
[32]
  GI50: 24.7 µM (inactive)
[33]
  GI50: 13.2 µM (inactive)
[34]
  GI50: 23.4 µM (inactive)
[35]
  GI50: 19.2 µM (inactive)
[36]
  GI50: 36.6 µM (inactive)
[37]
  GI50: 27.4 µM (inactive)
[38]
  GI50: 25.9 µM (inactive)
[39]
  GI50: 17.7 µM (inactive)
[40]
  GI50: 43.2 µM (inactive)
[41]
  GI50: 13.6 µM (inactive)
[42]
  GI50: 20 µM (inactive)
[43]
  GI50: 34.8 µM (inactive)
[44]
  GI50: 25.6 µM (inactive)
[45]
  GI50: 18.2 µM (inactive)
[46]
  GI50: 12.2 µM (inactive)
[47]
  GI50: 29.2 µM (inactive)
[48]
  GI50: 30.1 µM (inactive)
[49]
  GI50: 20 µM (inactive)
[50]
  GI50: 22.9 µM (inactive)
[51]
  GI50: 30.9 µM (inactive)
[52]
  GI50: 23.6 µM (inactive)
[53]
  GI50: 25.2 µM (inactive)
[54]
  GI50: 34 µM (inactive)
[55]
  GI50: 21.5 µM (inactive)
[56]
  GI50: 22.4 µM (inactive)
[57]
  GI50: 23.4 µM (inactive)
